Experimental data taken from US20110165173A1, “THERAPEUTIC AGENT AND DETECTION REAGENT FOR ARTERIOSCLEROTIC DISEASE WHICH TARGETS FOR SALUSIN” (PROTEINEXPRESS CO., LTD., priority 2007, published 2011).

Assays:
[1] = target: T1, mouse mas-like G protein-coupled receptor Al (mMrgA 1) (Mus musculus, UniProt Q91WW5); conditions: HEK293T cells expressing mMrgA1; Wang Z et al., Eur J Pharmacol. 2006; cited from earlier work
T1 construct: host or cells: HEK293T cells (heterologous expression, reported by Wang et al., Eur J Pharmacol 2006)
T1 sequence (Q91WW5 1-304): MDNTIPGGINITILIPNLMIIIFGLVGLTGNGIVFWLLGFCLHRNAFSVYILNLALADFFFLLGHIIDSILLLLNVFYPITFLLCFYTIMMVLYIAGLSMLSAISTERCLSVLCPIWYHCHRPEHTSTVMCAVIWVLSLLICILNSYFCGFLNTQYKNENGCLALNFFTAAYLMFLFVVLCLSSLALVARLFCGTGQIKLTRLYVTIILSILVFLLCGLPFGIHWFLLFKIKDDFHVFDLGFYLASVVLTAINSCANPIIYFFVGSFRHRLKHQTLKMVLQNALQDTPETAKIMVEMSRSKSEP

apoE-deficient mice = assay: Arteriosclerotic lesions of aorta in apoE-deficient mice under continuous subcutaneous administration (oil red O staining); format: in vivo; conditions: 0.6 nmol/kg/h continuous subcutaneous
Experimental: Effects of continuous administration of salusin-α and salusin-β on arteriosclerosis were examined with the use of apoE-deficient mice as arteriosclerosis animal models. Herein, antiserum effects of salusin-α or salusin-β were also examined. In addition to examination of arteriosclerotic lesions, foaming of macrophages, which is important for formation of arteriosclerosis primary lesions, was focused on and cholesterol ester accumulation caused by oxidized LDL was assayed. Expression analysis was carried out for scavenger receptors (CD36 and SR-A) capable of recognizing oxidized LDL, an intracellular cholesterol esterification enzyme (acyl-CoA) (cholesterol acyltransferase 1 (ACAT1)), and ATP-binding cassette transporter A1 (ABCA1), ABCG1, and SR-BI, which are involved in the mechanism of extracellular transportation of excessive intracellular free cholesterol (cholesterol efflux).
The above animal experiments were carried out in accordance with the experimental practice guidelines established by Showa University (Japan). All the apoE-deficient mice used for this study were purchased from the Jackson Laboratory (Bar Harbor, Me., U.S.A.).
13-week-old male apoE-deficient mice (72 mice) were divided into the following 6 groups: (i) physiological salt saline (control); (ii) salusin-α (0.6 nmol/kg/h); (iii) salusin-β (0.6 nmol/kg/h); (iv) salusin-α (0.6 nmol/kg/h)+anti-salusin-α serum (1.4 μg/kg/h); (v) salusin-β (0.6 nmol/kg/h)+anti-salusin-β serum (1.4 μg/kg/h); and (vi) anti-salusin-β serum (1.4 μg/kg/h). The mice were subjected to continuous subcutaneous administration with the use of an osmotic mini-pump for 4 to 8 weeks. The osmotic mini-pump and the solution contained therein were changed every week.
Mice ingesting a normal diet were subjected to experiments. The following parameters were assayed.
Each collected aorta was cut in the longitudinal direction, followed by oil red O staining for examination of the surface area of each atherosclerosis lesion with lipid pigmentation. Adobe Photoshop (Adobe System Inc., San Jose, Calif., U.S.A.) was used for identification of arteriosclerotic lesions, followed by analysis using NIH Scion Image (Scion Corp., Frederick, Md., U.S.A.) for quantification of the surface area of each lesion. In addition, cross-sections of the vicinity of the aorta (immediately below the aortic valve) were prepared, followed by oil red O staining for detailed analysis of arteriosclerotic lesions.

Substance | ligand for mMrgA1 [1] | proximal aorta cross-sections, oil red O staining, compared with control group (apoE-deficient mice; four weeks) | mean arteriosclerotic lesion surface area of the aortic arch relative to control group (apoE-deficient mice; four weeks, P<0.005) | arteriosclerotic lesion surface area (apoE-deficient mice; eight weeks) | plaque formation (apoE-deficient mice; eight weeks)
salusin-β: peptide (SEQ ID NO: 3) comprising 20 amino acid residues, generated by processing from preprosalusin (AIFIFIRWLLKLGHHGRAPP; listed as Homo sapiens) [reference compound] | regarded as a ligand | formation of atheroma stained red with oil red O and thickening of the blood vessel wall were observed | approximately 2.5 times |  | 
salusin-α: peptide (SEQ ID NO: 1) comprising 28 amino acid residues, generated by processing from preprosalusin (SGALPPAPAAPRPALRAQRAGPAGPGAK; listed as Homo sapiens) | does not serve as a ligand |  |  | reduced to less than half | obvious plaque formation was not observed
